pKi: −log10 of the molar value.

In this test the target is T1, full length human recombinant glucocorticoid receptor (Homo sapiens, UniProt P04150).
T1 construct: partially purified full length human recombinant glucocorticoid receptor; purchased Panvera/Invitrogen PV4302
T1 sequence (P04150 1-777): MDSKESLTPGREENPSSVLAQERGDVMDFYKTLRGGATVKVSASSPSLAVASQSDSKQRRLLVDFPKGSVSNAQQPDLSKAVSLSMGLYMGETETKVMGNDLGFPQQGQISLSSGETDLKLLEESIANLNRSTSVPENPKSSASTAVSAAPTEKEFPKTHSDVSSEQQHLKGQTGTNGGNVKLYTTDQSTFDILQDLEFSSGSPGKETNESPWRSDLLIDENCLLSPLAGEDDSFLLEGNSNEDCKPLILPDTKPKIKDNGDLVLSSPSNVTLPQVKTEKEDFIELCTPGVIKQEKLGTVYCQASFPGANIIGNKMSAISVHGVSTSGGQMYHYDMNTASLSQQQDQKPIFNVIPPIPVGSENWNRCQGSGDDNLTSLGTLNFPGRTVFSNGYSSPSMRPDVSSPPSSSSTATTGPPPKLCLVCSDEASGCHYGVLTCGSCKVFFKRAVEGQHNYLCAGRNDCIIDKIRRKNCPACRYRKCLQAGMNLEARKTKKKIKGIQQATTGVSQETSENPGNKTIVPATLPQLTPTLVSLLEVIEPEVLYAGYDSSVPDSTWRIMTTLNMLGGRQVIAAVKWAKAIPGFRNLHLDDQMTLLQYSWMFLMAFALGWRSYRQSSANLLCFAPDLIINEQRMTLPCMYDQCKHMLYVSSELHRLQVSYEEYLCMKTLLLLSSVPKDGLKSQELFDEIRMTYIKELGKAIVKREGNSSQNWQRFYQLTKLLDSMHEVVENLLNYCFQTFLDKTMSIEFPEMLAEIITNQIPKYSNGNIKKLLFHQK
As to the kind of experiment: Glucocorticoid Receptor Binding Assay (fluorescence polarization competitor assay, Fluormone GS Far Red tracer). Put shortly: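 Partially purified full-length recombinant human GR with a stabilizing coactivator peptide was incubated with Fluormone GS Far Red tracer and serially diluted compound for 3 h at 22 °C in the dark, pH 7.4. Fluorescence polarization was read at 610-660 nm. IC50 came from sigmoidal fitting, and Ki from Cheng-Prusoff.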
Background: Polarisation of emitted light reports the rotation of a fluorescent probe.
`COC(=O)Cc1ccc(COc2ccc([C@H](C)[C@](O)(c3cnc4ccccc4c3)C(F)(F)F)c(Cl)c2)cc1` (stereo in doubt) [Example 144, {4-[3-Chloro-4-(3,3,3-trifluoro-2-hydroxy-1-methyl-2-quinolin-3-yl-propyl)-phenoxymethyl]-phenyl}-acetic acid methyl ester]: the negative logarithm of the Ki (pKi) is 8.44. With `C[C@@H](c1ccc(OCc2ccc(C(=O)O)cc2)cc1Cl)[C@](O)(c1cccc2cnccc12)C(F)(F)F` (stereo in doubt) [Example 148, 4-[3-Chloro-4-(3,3,3-trifluoro-2-hydroxy-2-isoquinolin-5-yl-1-methyl-propyl)-phenoxymethyl]-benzoic acid] the figure was 8.89. With `C[C@@H](c1ccc(OCc2ccc(CC(=O)O)cc2)cc1Cl)[C@](O)(c1cccc2cnccc12)C(F)(F)F` (stereo in doubt) [Example 149, {4-[3-Chloro-4-(3,3,3-trifluoro-2-hydroxy-2-isoquinolin-5-yl-1-methyl-propyl)-phenoxymethyl]-phenyl}-acetic acid] the figure was 8.74; with `C[C@@H](c1ccc(-c2ccc(C(=O)O)c(F)c2)cc1Cl)[C@](O)(c1cccc2cnccc12)C(F)(F)F` (stereo in doubt) [Example 150, 3′-Chloro-3-fluoro-4′-(3,3,3-trifluoro-2-hydroxy-2-isoquinolin-5-yl-1-methyl-propyl)-biphenyl-4-carboxylic acid], 8.02; with `C[C@H](c1ccc(Oc2ccc(C(=O)O)cc2)cc1Cl)[C@@](O)(c1ccc(=O)n(C)c1)C(F)(F)F` (stereo in doubt) [Example 152, 4-{3-Chloro-4-[3,3,3-trifluoro-2-hydroxy-1-methyl-2-(1-methyl-6-oxo-1,6-dihydro-pyridin-3-yl)-propyl]-phenoxy}-benzoic acid], 8.48. With `COC(=O)c1ccc(Oc2ccc([C@@H](C)[C@@](O)(c3ccc(=O)n(C)c3)C(F)(F)F)c(Cl)c2)cc1Cl` (stereo in doubt) [Example 153, 2-Chloro-4-{3-chloro-4-[3,3,3-trifluoro-2-hydroxy-1-methyl-2-(1-methyl-6-oxo-1,6-dihydro-pyridin-3-yl)-propyl]-phenoxy}-benzoic acid methyl ester] the figure was 8.31.

On to `C[C@H](c1ccc(Oc2ccc(C(=O)O)c(Cl)c2)cc1Cl)[C@@](O)(c1ccc(=O)n(C)c1)C(F)(F)F` (stereo in doubt) [Example 154, 2-Chloro-4-{3-chloro-4-[3,3,3-trifluoro-2-hydroxy-1-methyl-2-(1-methyl-6-oxo-1,6-dihydro-pyridin-3-yl)-propyl]-phenoxy}-benzoic acid], for which the negative-log Ki (pKi) was 8.20. Regarding `C[C@H](c1ccc(Oc2ccc(C(=O)O)c(F)c2)cc1Cl)[C@@](O)(c1ccc(=O)n(C)c1)C(F)(F)F` (stereo in doubt) [Example 155, 4-{3-Chloro-4-[3,3,3-trifluoro-2-hydroxy-1-methyl-2-(1-methyl-6-oxo-1,6-dihydro-pyridin-3-yl)-propyl]-phenoxy}-2-fluoro-benzoic acid], the pKi is 7.34.

For the molecule `C[C@H](c1ccc(Oc2ccc(CC(=O)O)cc2)cc1Cl)[C@@](O)(c1ccc(=O)n(C)c1)C(F)(F)F` (stereo in doubt) [Example 158, (4-{3-Chloro-4-[3,3,3-trifluoro-2-hydroxy-1-methyl-2-(1-methyl-6-oxo-1,6-dihydro-pyridin-3-yl)-propyl]-phenoxy}-phenyl)-acetic acid], the pKi is 8.15. Turning to `CCOC(=O)COc1cc(Oc2ccc([C@@H](C)[C@@](O)(c3ccc(=O)n(C)c3)C(F)(F)F)c(Cl)c2)ccc1F` (stereo in doubt) [Example 161, (5-{3-Chloro-4-[3,3,3-trifluoro-2-hydroxy-1-methyl-2-(1-methyl-6-oxo-1,6-dihydro-pyridin-3-yl)-propyl]-phenoxy}-2-fluoro-phenoxy)-acetic acid ethyl ester], the pKi is 8.51. With `C[C@H](c1ccc(Oc2ccc(F)c(OCC(=O)O)c2)cc1Cl)[C@@](O)(c1ccc(=O)n(C)c1)C(F)(F)F` (stereo in doubt) [Example 162, (5-{3-Chloro-4-[3,3,3-trifluoro-2-hydroxy-1-methyl-2-(1-methyl-6-oxo-1,6-dihydro-pyridin-3-yl)-propyl]-phenoxy}-2-fluoro-phenoxy)-acetic acid] the figure was 9.22; with `C[C@H](c1ccc(Oc2cc(C(F)(F)F)c(C(=O)O)cn2)cc1Cl)[C@@](O)(c1ccc(=O)n(C)c1)C(F)(F)F` (stereo in doubt) [Example 164, 6-{3-Chloro-4-[3,3,3-trifluoro-2-hydroxy-1-methyl-2-(1-methyl-6-oxo-1,6-dihydro-pyridin-3-yl)-propyl]-phenoxy}-4-trifluoromethyl-nicotinic acid], 7.40; with `C[C@@H](c1ccc(-c2ccc(C(=O)O)c(Cl)c2)cc1Cl)[C@](O)(c1ccc(=O)n(C)c1)C(F)(F)F` (stereo in doubt) [Example 169, 3,3′-Dichloro-4′-[3,3,3-trifluoro-2-hydroxy-1-methyl-2-(1-methyl-6-oxo-1,6-dihydro-pyridin-3-yl)-propyl]-biphenyl-4-carboxylic acid], 7.74. Consider `C[C@@H](c1ccc(-c2ccc(Cl)c(C(=O)O)c2)cc1Cl)[C@](O)(c1ccc(=O)n(C)c1)C(F)(F)F` (stereo in doubt) [Example 170, 4,3′-Dichloro-4′-[3,3,3-trifluoro-2-hydroxy-1-methyl-2-(1-methyl-6-oxo-1,6-dihydro-pyridin-3-yl)-propyl]-biphenyl-3-carboxylic acid], for which the pKi is 7.30.

As to `CCOC(=O)c1cc(-c2ccc([C@H](C)[C@](O)(c3ccc(=O)n(C)c3)C(F)(F)F)c(Cl)c2)ccc1F` (stereo in doubt) [Example 172, 3′-Chloro-4-fluoro-4′-[3,3,3-trifluoro-2-hydroxy-1-methyl-2-(1-methyl-6-oxo-1,6-dihydro-pyridin-3-yl)-propyl]-biphenyl-3-carboxylic acid ethyl ester], the pKi is 8.42. Turning to `COC(=O)c1ccc(-c2ccc([C@H](C)[C@](O)(c3ccc(=O)n(C)c3)C(F)(F)F)c(Cl)c2)cc1OC` (stereo in doubt) [Example 173, 3′-Chloro-3-methoxy-4′-[3,3,3-trifluoro-2-hydroxy-1-methyl-2-(1-methyl-6-oxo-1,6-dihydro-pyridin-3-yl)-propyl]-biphenyl-4-carboxylic acid methyl ester], the negative logarithm of the Ki (pKi) was 8.14. With `COc1cc(-c2ccc([C@H](C)[C@](O)(c3ccc(=O)n(C)c3)C(F)(F)F)c(Cl)c2)ccc1C(=O)O` (stereo in doubt) [Example 174, 3′-Chloro-3-methoxy-4′-[3,3,3-trifluoro-2-hydroxy-1-methyl-2-(1-methyl-6-oxo-1,6-dihydro-pyridin-3-yl)-propyl]-biphenyl-4-carboxylic acid] the figure was 7.01; with `COC(=O)c1ccc(-c2ccc([C@H](C)[C@](O)(c3ccc(OC)nc3)C(F)(F)F)c(Cl)c2)cc1F` (stereo in doubt) [Example 176, 3′-Chloro-3-fluoro-4′-[3,3,3-trifluoro-2-hydroxy-2-(6-methoxy-pyridin-3-yl)-1-methyl-propyl]-biphenyl-4-carboxylic acid methyl ester], 7.03. With `COC(=O)c1ccc(-c2ccc([C@H](C)[C@](O)(c3ccc(OC)nc3)C(F)(F)F)c(Cl)c2)cc1Cl` (stereo in doubt) [Example 178, 3,3′-Dichloro-4′-[3,3,3-trifluoro-2-hydroxy-2-(6-methoxy-pyridin-3-yl)-1-methyl-propyl]-biphenyl-4-carboxylic acid methyl ester] the figure was 7.14; with `CCOC(=O)c1cc(-c2ccc([C@H](C)[C@](O)(c3ccc(OC)nc3)C(F)(F)F)c(Cl)c2)ccc1Cl` (stereo in doubt) [Example 180, 4,3′-Dichloro-4′-[3,3,3-trifluoro-2-hydroxy-2-(6-methoxy-pyridin-3-yl)-1-methyl-propyl]-biphenyl-3-carboxylic acid ethyl ester], 7.42. With `CCn1cc([C@@](O)([C@@H](C)c2ccc(-c3ccc(F)c(C(=O)O)c3)cc2Cl)C(F)(F)F)ccc1=O` (stereo in doubt) [Example 184, 3′-Chloro-4′-[2-(1-ethyl-6-oxo-1,6-dihydro-pyridin-3-yl)-3,3,3-trifluoro-2-hydroxy-1-methyl-propyl]-4-fluoro-biphenyl-3-carboxylic acid] the figure was 7.98; with `CCn1cc([C@@](O)([C@@H](C)c2ccc(-c3ccc(C(=O)OC)c(F)c3)cc2Cl)C(F)(F)F)ccc1=O` (stereo in doubt) [Example 185, 3′-Chloro-4′-[2-(1-ethyl-6-oxo-1,6-dihydropyridin-3-yl)-3,3,3-trifluoro-2-hydroxy-1-methyl-propyl]-3-fluoro-biphenyl-4-carboxylic acid methyl ester], 7.92.

What is called pKi is −log10 of the Ki, conventionally taken in molar units.

For the origin of these results see US8138189B2, “Substituted benzene compounds as modulators of the glucocorticoid receptor” (Hoffman-La Roche Inc., priority 2009, dated 2012).
